{"source": "patent US20170165321A1", "about": "“METHOD FOR REDUCING AND/OR DELAYING PATHOLOGICAL EFFECTS OF HUMAN IMMUNODEFICIENCY VIRUS I (HIV) OR FOR REDUCING THE RISK OF DEVELOPING ACQUIRED IMMUNODEFICIENCY SYNDROME (AIDS)” (Bionor Immuno AS, priority 2014, published 2017)", "origin": "cited, not measured here", "key": {"[1]": {"system": "HIV-specific T-cells", "settings": "IMiD present during in vitro T-cell stimulation; Keersmaecker et al.; cited from earlier work"}, "[2]": {"system": "HIV-1 expression in latently infected cell lines and primary T cells", "settings": "cited from earlier work"}}, "data": [{"smiles": "Nc1cccc2c1CN(C1CCC(=O)NC1=O)C2=O", "note": "(stereo not drawn) [Lenalidomide]", "values": [{"measurement": "function of the T-cells", "setting": "[1]", "value": "a number of improvements in the function of the T-cells"}]}, {"smiles": "Nc1cccc2c1C(=O)N(C1CCC(=O)NC1=O)C2=O", "note": "(stereo not drawn) [pomalidomide]", "values": [{"measurement": "function of the T-cells", "setting": "[1]", "value": "a number of improvements in the function of the T-cells"}]}, {"smiles": "C/C=C1\\NC(=O)[C@H]2CSSCC/C=C/[C@H](CC(=O)N[C@H](C(C)C)C(=O)N2)OC(=O)[C@H](C(C)C)NC1=O", "note": "[romidepsin, (1S,4S,7Z,10S,16E,21R)-7-ethylidene-4,21-bis(1-methylethyl)-2-oxa-12,13-dithia-5,8,20,23-tetraazabicyclo[8.7.6] tricos-16-ene-3,6,9,19,22-pentone]", "values": [{"measurement": "activation of HIV-1 expression", "setting": "[2]", "value": "potently activates HIV-1 expression"}]}]}
